Reference: US20020059032A1, “Rational selection of putative peptides from identified nucleotide or peptide sequences” (priority 1999, published 2002)
Where a SMILES comes first, the peptide text is derived from it.

What was measured:
[1] = molecular target: guinea pig brain membranes; test: Binding test with guinea pig brain membranes; details: tested on guinea pig brain membranes; read-out: IC50 = 100 μM
rat brain membranes = test: Binding test with rat brain membranes
Procedure: (§1) The membranes are placed in a buffer (50 mM of Tris-HCl, 5 mM of MgCl2 and 0.1 g/l of bacitracin) at the desired protein concentration (iodized CCK bond, 0.1 mg of protein/ml; iodized gastrin bond: 0.5 mg of proteins/ml). They are then incubated in the presence of a labelled ligand in a total volume of 500 μl (about 10 pM for the iodized CCK8, 20 pM for the iodized gastrin13), 50-80 minutes at 25° C., and in the presence or absence of cold agonists. The reaction is stopped with 3 ml of additional BSA buffer (20 g/l) at 4° C., the tubes are centrifuged at 10,000×g, the supernatant is drawn off and the radioactivity associated with the precipitate is evaluated with a γ counter.
(§2) Membrane Preparations of Different Rat Tissues and Organs
(§3) 1) The rats are sacrificed by rupturing their cervical vertebrae, and the different tissues are removed and washed several times in a large volume of NaCl at 9 per thousand.
(§4) The following steps are carried at 4° C.
(§5) 2) The tissues and organs are transferred, still separately, in a sucrose buffer containing:
(§6) They are then cut up carefully with the aid of fine scissors and crushed using an ultraturax apparatus. […]
(§7) 8) The protein content in the membrane suspensions is evaluated using a Bradford dosage device (BioRad, acording to the manufacturer's instructions). […]

Jurkat T cells = test: Binding test with Jurkat T cells; parameters: species or system human
Procedure: Bonding of Radiolabelled Agonists to Jurkat T cells
Culture Conditions of the Cells of the Jurkat T Human Lymphocytic Line
The Jurkat cells are cultured in an RPMI 1640 medium supplemented with foetal calf serum (10% volume/volume) and antibiotics (50 U/ml of penicillin and 50 μg/ml of streptomycin) serum in a humid incubator at 37° C. under an atmosphere of 5% CO2 in air.
The cells are obtained by centrifugation (514 g, 5 minutes), then are washed twice in a standard medium containing: 98 mM of NaCl; 6 mM of KCl; 2.5 mM of NaH2PO4; 1.5 mM of CaCl2, 1 mM of MgCl2, 5 mM of Na-pyruvate; 5 mM of Na-fumarate; 5 mM of Na-glutamate; 2 mM of glutamine; 11.5 mM of glucose; 24.5 mM of Hepes (N-[2-hydroxyethyl]piperazine-N′-[2-ethane sulfonic acid]); 0.5 g/l of bacitracin; 0.1 g/l of soya bean trypsin inhibitor, pH 7.4
Experiments with agonist bonds labelled with iodine 125 (about 50 picomolars) are carried out at 37° C. under agitation for 45-60 minutes in a final volume of 0.5 ml of standard medium containing 2×10^6 cells (4×10^6 cells/ml) and in the presence or absence of competitors. The non-specific bond is evaluated in the presence of a micromolar concentration of cold homologous peptide.

[2] = tested on: different rat organ membranes; test: Binding test with different rat organ membranes
Procedure: as §1, §2, §3, §4, §5, §6, §7

HeLa cells = test: Binding test with HeLa cells
Procedure: Studies of the Bonding of Labelled Agonists on the HeLa Cell Line
The cells are cultured in a DMEM medium supplemented with 10% foetal calf serum, 0.5% of antibiotics (penicillin/streptomycin) and 0.5% of glutamine.
24 to 48 hours before experimentation, the cells are replicated in 24-well plates with approximately 100,000 cells per well and per ml.
The bonding studies are carried out with a BindH buffer
For the experiment, the medium is removed and the cells washed twice with 1 ml of buffer. The reaction medium (500 μl) containing the labelled agonist is added into each well in the presence or absence of the cold homologous agonist and the plates are incubated for one hour at 37° C.
The reaction is stopped by removal of the reaction volume and the wells are rinsed twice with 1 ml of BindH with 20% BSA.
The cells are lysed with 500 μl of 1N soda for 20 minutes at ambient temperature and the radioactivity associated with the lysate is evaluated using a gamma counter.

Row | Compound | IC50 [1] [nM] | further results
1 | CC[C@H](C)[C@H](NC(=O)CNC(=O)[C@H](CCCCN)NC(=O)[C@H](CO)NC(=O)[C@H](Cc1ccc(O)cc1)NC(=O)[C@@H](N)CC(=O)O)C(=O)N[C@H](C(=O)N[C@H](C(=O)N[C@H](C(=O)N[C@@H](CCCCN)C(=O)N[C@@H](CC(N)=O)C(=O)N[C@@H](CC(=O)O)C(N)=O)[C@@H](C)O)C(C)C)[C@@H](C)O [Example 62, H-DYSKGITVTKND-NH2] (H-DYSKGITVTKND-NH2) | 670 | 
2 | CSCC[C@H](NC(=O)[C@H](CC(C)C)NC(=O)CNC(=O)[C@H](Cc1ccccc1)NC(=O)[C@H](Cc1ccccc1)NC(=O)[C@H](CCC(N)=O)NC(=O)[C@H](CCC(N)=O)NC(=O)[C@@H]1CCCN1C(=O)[C@H](CCCCN)NC(=O)[C@@H]1CCCN1C(=O)[C@@H](N)Cc1ccc(O)cc1)C(N)=O [Example 64, H-YPKPQQFFGLM-NH2] (H-YPKPQQFFGLM-NH2) | 1 | 
3 | ELGRGPGPPLPERGA [Example 5, H-ELGRGPGPPLPERGA-NH2] |  | IC50 (rat brain membranes): 90000 nM; Results, binding test with Jurkat T cells (positive/negative) (Jurkat T cells): negative
4 | GQDSIEPVPGQK [Example 1, H-GQDSIEPVPGQK-NH2] |  | Results, binding test with different rat organ membranes (positive/negative) [2]: negative; Results, binding test with Jurkat T cells (positive/negative) (Jurkat T cells): negative
5 | PLEPSGG [Example 4, H-PLEPSGG-NH2] |  | Results, binding test with different rat organ membranes (positive/negative) [2]: negative
6 | YERNRQAAAANPENSRGK [Example 6, H-YERNRQAAAANPENSRGK-NH2] |  | IC50 (rat brain membranes): 90000 nM; Results, binding test with Jurkat T cells (positive/negative) (Jurkat T cells): negative
7 | YFKIDNVKKARVQWA [Example 3, H-YFKIDNVKKARVQWA-NH2] |  | IC50 (HeLa cells): 50000 nM

Second part, led by results:

Row | IC50 [1] [nM] | Compound | further results
8 | 20 | CC[C@H](C)[C@H](NC(=O)[C@@H](N)C(C)C)C(=O)N[C@@H](CCC(N)=O)C(=O)N[C@@H](Cc1ccc(O)cc1)C(=O)N[C@@H](CC(C)C)C(=O)N[C@@H](C)C(=O)N[C@@H](Cc1c[nH]cn1)C(=O)N[C@H](C(=O)N[C@@H](C)C(=O)N[C@@H](CO)C(=O)N[C@@H](CO)C(=O)N[C@@H](Cc1c[nH]cn1)C(=O)N[C@@H](CCCCN)C(N)=O)C(C)C [Example 63, H-VIQYLAHVASSHK-NH2] (H-VIQYLAHVASSHK-NH2) | 
9 | 4000 | CC(C)C[C@H](NC(=O)[C@H](CCC(N)=O)NC(=O)[C@H](C)NC(=O)[C@@H](NC(=O)[C@H](CCC(=O)O)NC(=O)[C@H](CCC(=O)O)NC(=O)[C@H](CCCCN)NC(=O)[C@@H]1CCCN1C(=O)[C@@H]1CCCN1C(=O)[C@@H](N)CCC(=O)O)[C@@H](C)O)C(=O)N[C@H](C(=O)NCC(=O)N1CCC[C@H]1C(=O)N[C@@H](CCC(=O)O)C(=O)N[C@@H](C)C(N)=O)[C@@H](C)O [Example 65, H-EPPKEETAQLTGPEA-NH2] (H-EPPKEETAQLTGPEA-NH2) | 
10 | 2 | CSCC[C@H](NC(=O)[C@@H](N)Cc1ccc(O)cc1)C(=O)N[C@@H](Cc1c[nH]cn1)C(=O)NCC(=O)N[C@@H](Cc1c[nH]cn1)C(=O)N[C@@H](CCCNC(=N)N)C(=O)N[C@@H](C)C(=O)N1CCC[C@H]1C(=O)NCC(N)=O [Example 66, H-YMHGHRAPG-NH2] (H-YMHGHRAPG-NH2) | 
11 | 160 | CSCC[C@H](N)C(=O)NCC(=O)N[C@@H](CCCCN)C(=O)N[C@@H](Cc1c[nH]c2ccccc12)C(=O)N[C@@H](Cc1c[nH]cn1)C(=O)N[C@H](C(=O)NCC(N)=O)C(C)C [Example 67, H-MGKWHVG-NH2] (H-MGKWHVG-NH2) | 
12 | 25 | CC(C)C[C@H](NC(=O)[C@H](CO)NC(=O)[C@H](Cc1c[nH]cn1)NC(=O)[C@H](CO)NC(=O)[C@H](CO)NC(=O)[C@@H](N)CO)C(=O)N[C@@H](CO)C(=O)N[C@@H](Cc1c[nH]cn1)C(=O)N[C@@H](CCCCN)C(N)=O [Example 68, H-SSSHSLSHK-NH2] (H-SSSHSLSHK-NH2) | 
13 | 37 | CC[C@H](C)[C@H](NC(=O)[C@H](CCCNC(=N)N)NC(=O)[C@H](CC(C)C)NC(=O)[C@H](CC(C)C)NC(=O)CNC(=O)[C@@H](NC(=O)[C@@H](N)Cc1c[nH]cn1)C(C)C)C(=O)N[C@@H](CCCCN)C(N)=O [Example 69, H-HVGLLRIK-NH2] (H-HVGLLRIK-NH2) | 
